Assay results from patent publication US11116757B2 (priority 2015, dated 2021).

Biological target: DCN1-UBC12 interaction (Homo sapiens (Human), UniProt Q96GG9)
Assay: biochemical
Type: binding
Conditions: Table 4, commercial compounds; read-out: TR-FRET IC50

Chain of DCN1-UBC12 interaction (Q96GG9 60-248 limits assumed): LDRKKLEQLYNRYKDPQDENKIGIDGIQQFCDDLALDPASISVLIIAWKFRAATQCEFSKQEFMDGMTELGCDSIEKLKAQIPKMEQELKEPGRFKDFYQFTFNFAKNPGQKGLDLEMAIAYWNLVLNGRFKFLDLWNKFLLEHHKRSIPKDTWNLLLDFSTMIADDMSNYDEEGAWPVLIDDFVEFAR

| Compound | IC50 [µM] |
| --- | --- |
| CC1CN(C(=O)N2CCC(C(=O)Nc3cccc(Cl)c3)CC2)c2ccccc2O1 (stereo not shown) [C51] | > 67.6 |
| COCCC(=O)N1CCC(C(=O)Nc2ccc(-c3cc4ccccc4[nH]3)cc2)CC1 [C45] | > 67.6 |
| O=C(Nc1ccc(F)c(Cl)c1)C1CCN(C(=O)c2ccc(F)cc2)CC1 [C18] | > 67.6 |
| Cc1cc(NC(=O)C2CCN(C(=O)c3ccco3)CC2)ccc1Br [C38] | > 67.6 |
| Cc1ccc(NC(=O)C2CCN(C(=O)c3ccccc3C)CC2)cc1Cl [C14] | > 67.6 |
| COc1cccc(NC(=O)C2CCN(C(=O)c3cnn(-c4ccccc4)c3-n3cccc3)CC2)c1 [C8] | > 67.6 |
| COc1ccc(C(=O)N2CCC(C(=O)Nc3cccc(F)c3)CC2)c2ccccc12 [C58] | > 67.6 |
| COc1ccc(C(=O)N2CCC(C(=O)Nc3cc(OC)ccc3OC)CC2)cc1 [C11] | > 48.7 |
| Cc1cccc(NC(=O)C2CCN(C(=O)c3cccc(F)c3)CC2)c1 [C44] | > 67.6 |
| CCc1ccc(NC(=O)C2CCN(C(=O)N3CC(C)Oc4ccccc43)CC2)cc1 (stereo not shown) [C52] | > 67.6 |
| Cc1cc(C)n(-c2ccc(NC(=O)C3CCN(C(=O)CC(F)(F)F)CC3)cc2)n1 [C34] | > 67.6 |
| O=C(Nc1ccc(I)cc1)C1CCN(C(=O)c2ccco2)CC1 [C30] | > 67.6 |

Same assay, conditions: Table 6, commercial compounds; read-out: TR-FRET IC50

| Compound | IC50 [µM] |
| --- | --- |
| CCN1CCN(C(=O)c2cnn(-c3nccc(-c4cccs4)n3)c2C)CC1 [E23] | 57.9 |
| COCCN(C(=O)c1cnn(-c2nccc(-c3cccs3)n2)c1C)C(C)C [E45] | > 67.6 |
| C=CCN(CC=C)C(=O)c1cnn(-c2ncc(C)c(-c3cccs3)n2)c1C [E48] | > 67.6 |
| CCN(CC)CCNC(=O)c1cnn(-c2nccc(-c3cccs3)n2)c1C(C)C [E19] | 42.1 |
| CCN(CC)C(=O)c1cnn(-c2ncc(C)c(-c3cccs3)n2)c1C [E57] | > 67.6 |
| Cc1cnc(-n2ncc(C(=O)N3CCN(C)CC3)c2C2CC2)nc1-c1cccs1 [E55] | > 67.6 |

Same assay, conditions: Table 7, commercial compounds; read-out: TR-FRET IC50

| Compound | IC50 [µM] |
| --- | --- |
| COc1cccc(C2c3c(C)nn(C)c3NC(=O)C2NC(=O)c2cccc(C)c2)c1 (stereo not shown) [F27] | > 67.6 |
| COc1ccc(C2c3c(C)nn(C)c3NC(=O)C2NC(=O)c2ccc(OC)c(OC)c2)cc1F (stereo not shown) [F20] | > 67.6 |
| Cc1cccc(C(=O)NC2C(=O)Nc3c(c(C)nn3C)C2c2ccc(C(C)C)cc2)c1 (stereo not shown) [F16] | > 67.6 |
| Cc1nn(-c2ccccc2)c2c1C(c1ccc(C(F)(F)F)cc1)C(NC(=O)c1ccccc1)C(=O)N2 (stereo not shown) [F19] | > 67.6 |

Same assay, conditions: read-out: TR-FRET IC50

| Compound | IC50 [µM] |
| --- | --- |
| O=C(Nc1cc(F)cc(C(F)(F)F)c1)N(Cc1ccccc1)C1CCN(Cc2ccncc2)CC1 [A228] | > 28.3 |
| O=C(Nc1cc(C(F)(F)F)ccc1Cl)NC1CCN(Cc2ccccc2)CC1 [B101] | > 69.8 |
| CCCC(C)N1CCC(N(Cc2ccccc2)C(=O)Nc2ccc(C)cc2F)CC1 (stereo not shown) [A157] | 7.11 |
| O=C(Nc1ccc(Br)cc1Cl)NC1CCN(Cc2ccccc2)CC1 [B50] | > 67.6 |
| CCCC(C)N1CCC(N(Cc2ccccc2)C(=O)Nc2ccc(Br)cc2)CC1 (stereo not shown) [A5] | 0.0559 |
| CCCC(C)N1CCC(N(Cc2ccccc2)C(=O)Nc2ccccc2I)CC1 (stereo not shown) [A285] | > 72.4 |
| COc1ccc(CN(C(=O)Nc2ccccc2C(F)(F)F)C2CCN(C(C)=O)CC2)cc1 [B85] | > 67.6 |
| O=C(Nc1cccc(F)c1)NC1CCN(Cc2ccccc2)CC1 [B64] | > 67.6 |
| O=C(Nc1cccc(CN2CCOCC2)c1)NC1CCN(Cc2ccccc2)CC1 [A276, 1-(1-Benzylpiperidin-4-yl)-3-(3-(Morpholinomethyl)Phenyl)Urea] | > 68.7 |
| CCCC(C)N1CCC(N(Cc2ccccc2)C(=O)Nc2cccc3cnccc23)CC1 (stereo not shown) [A244] | > 53.6 |
| COc1ccc(C(=O)N2CCC(c3nc4ccccc4s3)CC2)cc1OC [D19] | > 62.9 |
| CCCC(C)N1CCC(N(Cc2ccccc2)C(=O)Nc2cc(OC)ccc2Cl)CC1 (stereo not shown) [A288] | > 72.9 |
| CCCC(C)N1CCC(N(Cc2ccccc2)C(=O)Nc2ccc(F)c(F)c2F)CC1 (stereo not shown) [A286] | > 72.4 |
| Cc1ccc(CN(C(=O)Nc2cccc(C(F)(F)F)c2)C2CCN(Cc3ccccc3)CC2)o1 [B1] | 2.73 |
| O=C(c1cccc(C(F)(F)F)c1)N(Cc1ccccc1)C1CC2CCC(C1)N2Cc1ccccc1 (stereo not shown) [A234] | > 40.6 |
| COc1cc(C(=O)N2CCCC(c3nc4ccccc4s3)C2)cc(OC)c1OCC(N)=O (stereo not shown) [D24] | > 67.6 |
| CCN1CCC(N(Cc2ccco2)C(=O)Nc2cccc(C(F)(F)F)c2)CC1 [B3] | 3.85 |
| CCCC(C)N1CCC(N(Cc2ccccc2)C(=O)Nc2ccc(CN(C)C)cc2)CC1 (stereo not shown) [A236] | > 45.4 |
| FC(F)(F)c1ccnc(NC2CCN(Cc3ccccc3)CC2)n1 [B124] | > 90.4 |
| CCCC(C)N1CCC(N(Cc2cccnc2)C(=O)Nc2ccc(F)c(C(F)(F)F)c2)CC1 (stereo not shown) [A55] | 0.303 |
| CCCC(C)N1CCC(N(Cc2ccccc2)C(=O)Nc2ccc3c(c2)OC(F)(F)O3)CC1 (stereo not shown) [A52] | 0.281 |
| O=C(Nc1cccc(C(F)(F)F)c1)N1CCN(Cc2cccnc2)CC1 [B116] | > 74.8 |
| O=C(Nc1ccc(C(=O)N2CCOCC2)cc1)Nc1cccc(C(F)(F)F)c1 [B46] | > 66.3 |

| Compound | IC50 [µM] |
| --- | --- |
| CCOC(=O)c1ccccc1NC(=O)N(C(C)C)C1CCN(C(C)=O)CC1 [B66] | > 67.6 |
| CCCC(C)N1CCC(N(Cc2ccccc2)C(=O)Nc2ccc(S(=O)(=O)NC(C)=O)cc2)CC1 (stereo not shown) [A283] | > 72.1 |
| FC(F)(F)c1cccc(CN2CCN(Cc3nc4ccccc4[nH]3)CC2)c1 [B28] | > 46.3 |
| CCOc1ccccc1NC(=O)N(Cc1ccc(C)o1)C1CCN(Cc2ccccc2)CC1 [B92] | > 67.6 |
| CCCC(C)N1CCC(N(Cc2ccccc2)C(=O)Nc2ccc(OC)cc2C)CC1 (stereo not shown) [A275] | > 68.6 |
| C=CS(=O)(=O)NCc1ccccc1CN(C(=O)Nc1cccc(C(F)(F)F)c1)C1CCN(C(C)CCC)CC1 (stereo not shown) [A2] | 0.0068 |
| CCCC(C)N1CCC(N(Cc2ccccc2)C(=O)Nc2cccc(F)c2F)CC1 (stereo not shown) [A162] | 8.22 |
| C=CC(=O)Nc1cccc(CN(C(=O)Nc2cccc(C(F)(F)F)c2)C2CCN(C(C)CCC)CC2)c1 (stereo not shown) [drawing 840] | 0.11 |
| CCN1CCC(N(Cc2ccco2)C(=O)Nc2ccc(Br)c(C)c2)CC1 [B2] | 3 |
| CCc1ccccc1NC(=O)NC1CCN(Cc2ccccc2)CC1 [B53] | > 67.6 |
| Cc1cccc(NC(=O)NC2CCN(Cc3ccccc3)CC2)c1 [B57] | > 67.6 |
| CCCC(C)N1CCC(N(Cc2ccccc2)C(=O)Nc2ccc(S(=O)(=O)Nc3ccc(OC)nn3)cc2)CC1 (stereo not shown) [A296] | > 83.4 |
| CCCC(C)N1CCC(N(Cc2ccccc2)C(=O)Nc2cccc(N(C)C)c2)CC1 (stereo not shown) [A112] | 2.3 |
| Cc1cc(NC(=O)NC2C(C)CN(Cc3ccccc3)CC2C)no1 (stereo not shown) [B121] | > 81.9 |
| 1-(1-Acryloylpiperidin-4-yl)-1-Benzyl-3-(3-(Trifluoromethyl)Phenyl)Urea [A65] | 0.446 |
| 1-Benzyl-1-(1-(Cyclopropylmethyl)Piperidin-4-yl)-3-(3-(Trifluoromethyl)Phenyl)Urea [A30] | 0.178 |
| CCCC(C)N1CCC(N(Cc2ccccc2)C(=O)Nc2ccc(-c3ccc(C(=O)OC)cc3)cc2)CC1 (stereo not shown) [A278] | > 69.1 |
| CCCC(C)N1CCC(N(Cc2ccccc2)C(=O)Nc2ccc(-c3cccc(C(=O)OC)c3)cc2)CC1 (stereo not shown) [A116] | 2.37 |
| CCOc1ccc(C(=O)NCC(=O)N2CCC(c3nc4ccccc4s3)CC2)cc1 [D33] | > 67.6 |
| CCc1ccc(NC(=O)NC2CCN(Cc3ccccc3)CC2)cc1 [B52] | > 67.6 |
| 1-Benzyl-1-(1-Isopentylpiperidin-4-yl)-3-(3-(Trifluoromethyl)Phenyl)Urea [A90] | 1.13 |
| CCCC(C)N1CCC(N(Cc2ccccc2)C(=O)Nc2cccc(F)c2C)CC1 (stereo not shown) [A151] | 5.66 |
| Cc1nc(NC(=O)NC2CCN(Cc3ccccc3)CC2)nn1C [B25] | > 16.3 |

| Compound | IC50 [µM] |
| --- | --- |
| O=C(NCC(=O)N1CCC(c2nc3ccccc3s2)CC1)c1cccc(F)c1 [D23] | > 67.6 |
| CCCC(C)N1CCC(N(Cc2ccccc2)C(=O)Nc2cnc(Cl)nc2)CC1 (stereo not shown) [A241] | > 52.4 |
| O=C(CN1CCC(Cc2ccccc2)CC1)Nc1cc(C(F)(F)F)cc(C(F)(F)F)c1 [B118] | > 78.5 |
| COc1ccc(CN(C(=O)Nc2cc(C)ccc2C)C2CCN(C(C)=O)CC2)cc1 [B82] | > 67.6 |
| CCCCN1CCC(N(Cc2ccccc2)C(=O)Nc2cccnc2)CC1 [A280] | > 70.1 |
| CCCC(C)N1CCC(N(Cc2ccccc2)C(=O)Nc2cc(Cl)ccc2Cl)CC1 (stereo not shown) [A152] | 6.27 |
| O=C(Nc1ccc(Cl)cc1)NC1CCN(Cc2ccccc2)CC1 [B58] | > 67.6 |
| O=C(c1ccccc1Br)N1CCC(c2nc3ccccc3s2)CC1 [D8] | 19.8 |
| CCCC(C)N1CCC(N(Cc2ccccc2)C(=O)Nc2ccc(O)cc2)CC1 (stereo not shown) [A308] | > 98.6 |
| CCCC(C)N1CCC(N(Cc2ccccc2)C(=O)Nc2ccc(OC)c(F)c2)CC1 (stereo not shown) [A109] | 2.2 |
| CCn1cnc(NC(=O)NC2CCN(Cc3ccccc3)CC2)n1 [B47] | > 67 |
| O=C(Nc1ccc2c(c1)C(=O)NCC2)NC1CCN(Cc2ccccc2)CC1 [B122] | > 84.8 |
| CCCC(C)N1CCC(N(Cc2ccc3c(c2)OCO3)C(=O)Nc2ccc(Cl)c(Cl)c2)CC1 (stereo not shown) [A9] | 0.0788 |
| COc1cccc(CN2CCC(N(Cc3ccccc3)C(=O)Nc3cc(F)cc(C(F)(F)F)c3)CC2)c1 [A231] | > 28.9 |
| COCCn1ccc(NC(=O)NC2CCN(Cc3ccccc3)CC2)n1 [B35] | > 55.9 |
| COc1ccc(CN(C(=O)Nc2ccc(C)cc2)C2CCN(C(C)=O)CC2)cc1 [B83] | > 67.6 |
| C#CCCCN1CCC(N(Cc2ccccc2NC(=O)C=C)C(=O)Nc2cccc(C(F)(F)F)c2)CC1 [A119] | 0.353 |
| CCN1CCC(N(Cc2ccco2)C(=O)Nc2cc(Cl)ccc2C)CC1 [B78] | > 67.6 |
| CCCC(C)N1CCC(N(Cc2ccccc2)C(=O)Nc2cccc(C(=O)OC)c2)CC1 (stereo not shown) [A81] | 0.88 |
| CCCC(C)N1CCC(N(Cc2ccccc2)C(=O)Nc2ccccc2Sc2ccccc2)CC1 (stereo not shown) [A303] | > 89.9 |
| COc1ccc(CN(C(=O)Nc2ccccc2F)C2CCN(C(C)=O)CC2)cc1 [B86] | > 67.6 |
| CCCC(C)N1CCC(N(Cc2ccccc2)C(=O)Nc2cccc(C(C)(C)C)c2)CC1 (stereo not shown) [A140] | 4.2 |
| O=C(Nc1cccc(C(F)(F)F)c1)NC1CCN(C(=O)c2ccccc2)CC1 [A306, 1-(1-Benzoylpiperidin-4-yl)-3-(3-(Trifluoromethyl)Phenyl)Urea] | > 98.1 |
